Results reported in patent US9028856B2, “Synergistic pesticide compositions” (priority 2008, dated 2015).

Assays:
[1] = system: Red Imported Fire ant (RIFA), Solenopsis invicta; experiment: Knockdown/mortality of ant workers under continuous exposure on treated glazed tile; format: in vivo; conditions: Table 44, aqueous permethrin/adjuvant, glazed tile
From the text: Treatments were allowed to dry overnight. […] Treatments were replicated minimum three times.
(§1) Treatments were allowed to dry overnight. […] Treatments were replicated a minimum of three times.

[2] = system: Argentine ant, Linepithema humile; experiment: as above; conditions: Table 41, aqueous permethrin/adjuvant, glazed tile
In short: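 0.5% AI imidacloprid in acetone, alone or with 0.1, 1.0 or 5.0% additive (benzenepropanoic acid, oleic acid, methyl oleate, methyl linoleate, methyl palmitate or BHA), 1 ml dried overnight on glazed tile (~161 cm^2). Ten workers confined under continuous exposure, water from 3 h; knockdown/mortality scored at intervals and 24 h; ≥3 replicates.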

[3] = system: Odorous House ant, Tapinoma sessile; experiment: as above; format: in vivo; conditions: Table 43, aqueous permethrin/adjuvant, glazed tile
In short: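 Each tile surface (about 5″×5″) was treated, left to dry overnight and tested in a minimum of three replicates.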

[4] = system: bait averse/resistant German cockroach (IHOP strain), Blattella germanica; experiment: Knockdown/mortality of male cockroaches under continuous exposure on treated glazed tile; format: in vivo; conditions: Table 42, aqueous permethrin/adjuvant, IHOP strain
Experimental: Treatments were allowed to dry overnight. […] Treatments were replicated a minimum of three times. Evaluations for cockroach knockdown/mortality were made at various intervals for 1 hour and at 24 hours after exposure.
Treatments were allowed to dry overnight. […] Evaluations for cockroach knockdown/mortality were made at various intervals and at 60 minutes after exposure.
as §1

[5] = system: Aedes aegypti mosquito; experiment: USDA Petri Dish Method, 3 min exposure to dipped fiberglass window screen; format: in vivo; conditions: dipped screen, 3 min exposure
Experimental: MATERIALS AND METHODS: Aqueous solutions of 1% deltamethrin with and without an adjuvant composition, which is sold under the tradename Suspend® SC. […] Pre-cut fiberglass screen (5″×5″, or 161.3 cm^2) were dipped in each treatment solution and excessive solution was allowed to drain completely (see FIG. 23 a). Weight of the solution coated on the screen was then determined. The treated screen was then allowed to air-dry overnight. USDA Petri Dish Method was used as initial screening protocol (see FIG. 23 b). Twenty, 4-6 day old female Aedes aegypti were exposed to treated window screen for 3 minutes and then moved onto a clean untreated white paper index card. Treatments were replicated a minimum of three times. Mosquito knockdown was evaluated at 3 minute intervals for the first 15 minutes and then at 5 minute intervals for the remainder of an hour. A small cotton ball with sucrose solution was added on the screen top of the Petri dish as a drinking source. Mortality was evaluated at 24 hours after exposure.
MATERIALS AND METHODS: Several rates of permethrin without adjuvant were prepared using product sold under the tradename Permanone® 40 to determine an effective rate against Aedes aegypti mosquitoes. After determining an effective rate range, aqueous solutions of permethrin at 1.25, 1.0 and 0.05% AI were prepared with and without adjuvant. […] Pre-cut fiberglass screens (5″×5″ or 161.3 cm^2) were dipped in each treatment solution allowing excessive solution to drain completely. Weight of the solution coated on the screen was then determined. The treated screen was then allowed to air-dry overnight. USDA Petri Dish Method was used as initial screening protocol (see photo, right). Twenty, 4-6 day old female Aedes aegypti were exposed to treated window screen for 3 minutes and then moved to a clean untreated white paper index card. Treatments were replicated a minimum of three times. Mosquito knockdown was evaluated at 3 minute intervals for the first 15 minutes and then at 5 minute intervals for the remainder of an hour. A small cotton ball with sucrose solution was added on the screen top of the petri-dish as a drinking source. Mortality was evaluated at 24 hours after exposure.

[6] = system: susceptible/normal German cockroach (Monheim strain), Blattella germanica; experiment: Knockdown/mortality of male cockroaches under continuous exposure on treated glazed tile; format: in vivo; conditions: Table 45, aqueous permethrin/adjuvant, glazed tile, Monheim strain
In short: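 Male cockroaches continuously exposed on treated glazed tile, dried overnight before exposure; at least three replicates. Knockdown/mortality scored at intervals from 5 or 10 min, over runs lasting 20 min to 24 h depending on test.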

[7] = system: Musca domestica, resistant strain Reichswald; experiment: Efficacy of formulations on surfaces (glazed/unglazed tiles), house flies, continuous exposure; format: in vivo; conditions: strain RW resistant, acetone solutions on glazed tiles, mean of three replicates
[8] = system: Musca domestica, resistant strain Reichswald; experiment: as above; format: in vivo; conditions: strain RW resistant, acetone solutions on glazed tiles, mean of three replicates; remark: listed apart in the source
Experimental: All surfaces were provided with talcum-coated glass rings (diameter 9.5 cm, height 5.5 cm) one day later.
The test insects were anesthetized with CO2, 20 individuals were placed onto the treated surfaces and the glass ring was covered with wire gauze ring. […]
Each test consisted of at least one replicate and any additional replicates are noted.
Test Insects: House flies (Musca domestica) of both sexes, susceptible strain WHO(N) and resistant strain Reichswald
Evaluation: Mortality was evaluated cumulatively at different times. […]
Test Insects: Culex quinquefasciatus (adults) (3 minutes exposure time according to USDA Petri Dish Method), Musca domestica (adults), susceptible and resistant strain, Blattella germanica (males), Cimex lectularius (adults) (all: continuous exposure time)
Application: The EC formulation (diluted with water 1:9) were applied as 0.85 ml solutions onto glazed tiles (15 cm×15 cm)

[9] = Table 39, permethrin without adjuvant (Permanone 40)
[10] = Table 40, aqueous permethrin/adjuvant

CC1(C)C(C=C(Cl)Cl)C1C(=O)OCc1cccc(Oc2ccccc2)c1 (centres unmarked) [Permethrin (0.5%)]
Average % Mortality after 5 min ([1]; 5 min): 43%
Average % Mortality after 15 min ([1]; 15 min): 100%
Average % Mortality after 30 min ([1]; 30 min): 100%
Average % Mortality after 60 min ([1]; 60 min): 100%
Average % Mortality after 5 min ([2]; 5 min): 58%
Average % Mortality after 10 min ([2]; 10 min): 100%
Average % Mortality after 15 min ([2]; 15 min): 100%
Average % Mortality after 20 min ([2]; 20 min): 100%
Average % Mortality after 10 min ([3]; 10 min): 13%
Average % Mortality after 20 min ([3]; 20 min): 50%
Average % Mortality after 30 min ([3]; 30 min): 93%
Average % Mortality after 60 min ([3]; 60 min): 100%
Average % Mortality after 10 min ([4]; 10 min): 40%
Average % Mortality after 20 min ([4]; 20 min): 87%
Average % Mortality after 40 min ([4]; 40 min): 93%
Average % Mortality after 60 min ([4]; 60 min): 100%
Average % Knockdown & Mortality after 3 min [5, 9]: 0%
Average % Knockdown & Mortality after 3 min [5, 10]: 0%
Average % Knockdown & Mortality after 9 min [5, 9]: 0%
Average % Knockdown & Mortality after 9 min [5, 10]: 1%
Average % Knockdown & Mortality after 15 min [5, 9]: 0%
Average % Knockdown & Mortality after 15 min [5, 10]: 1%
Average % Knockdown & Mortality after 30 min [5, 9]: 0%
Average % Knockdown & Mortality after 30 min [5, 10]: 0%
Average % Knockdown & Mortality after 60 min [5, 9]: 0%
Average % Knockdown & Mortality after 60 min [5, 10]: 0%
Average % Knockdown & Mortality after 24 hr [5, 9]: 9%
Average % Knockdown & Mortality after 24 hr [5, 10]: 6%
Average % Mortality after 10 min ([6]; 10 min): 100%
Average % Mortality after 20 min ([6]; 20 min): 100%
Average % Mortality after 30 min ([6]; 30 min): 100%
Average % Mortality after 4 hr ([6]; 4 hr): 100%

CC1(C)[C@H](C(=O)O[C@H](C#N)c2cccc(Oc3ccccc3)c2)[C@@H]1C=C(Br)Br [0.020% DTM]
% Mortality after ([7]; 2 h): 0%
% Mortality after ([7]; 24 h): 7%
% Mortality after ([8]; 15′): 0%
% Mortality after ([8]; 30′): 0%
% Mortality after ([8]; 1 h): 0%
% Mortality after ([8]; 3 h): 0%
